Laboratory results from PubChem BioAssay (NCI).
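Test compounds were applied to cells in 96-well plates for 48 hours at 5 doses. Here, GI50 denotes the concentration required for 50% inhibition of growth. The concentration for full growth arrest is given as TGI.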

Legend:
Assay in all cases: NCI-60 cell line screen, 48 h
[1] = test system: DLD-1 colon
[2] = test system: MOLT-4 leukemia
[3] = test system: K-562 leukemia
[4] = test system: ACHN renal
[5] = test system: 786-0 renal
[6] = test system: HCT-15 colon
[7] = test system: IGROV1 ovarian
[8] = test system: M19-MEL melanoma
[9] = test system: LXFL 529 NSCLC
[10] = test system: NCI-H460 lung
[11] = test system: NCI-H522 lung
[12] = test system: A549 NSCLC
[13] = test system: SNB-78 CNS
[14] = test system: OVCAR-8 ovarian
[15] = test system: SR leukemia
[16] = test system: SK-OV-3 ovarian
[17] = test system: HT29 colon
[18] = test system: SN12C renal
[19] = test system: UACC-62 melanoma
[20] = test system: RPMI-8226 leukemia
[21] = test system: UO-31 renal
[22] = test system: HL-60(TB) leukemia
[23] = test system: CCRF-CEM leukemia
[24] = test system: M14 melanoma
[25] = test system: NCI-H23 lung
[26] = test system: DMS 114 small cell lung
[27] = test system: HOP-62 NSCLC
[28] = test system: MALME-3M melanoma
[29] = test system: SK-MEL-28 melanoma
[30] = test system: UACC-257 melanoma
[31] = test system: SW-620 colon
[32] = test system: OVCAR-3 ovarian
[33] = test system: OVCAR-4 ovarian
[34] = test system: SNB-19 CNS
[35] = test system: XF 498 CNS
[36] = test system: LOX IMVI melanoma
[37] = test system: KM20L2 colon
[38] = test system: SNB-75 CNS
[39] = test system: OVCAR-5 ovarian
[40] = test system: SF-295 CNS
[41] = test system: SF-268 CNS
[42] = test system: SK-MEL-5 melanoma
[43] = test system: KM12 colon
[44] = test system: HCT-116 colon
[45] = test system: COLO 205 colon
[46] = test system: EKVX NSCLC
[47] = test system: TK-10 renal
[48] = test system: SK-MEL-2 melanoma
[49] = test system: HOP-92 NSCLC
[50] = test system: CAKI-1 renal
[51] = test system: U251 CNS

CCC[CH2][Sn]([Cl])([CH2]CCC)[CH2]CCC
GI50 [1]: 0.0853 µM
TGI [1]: 1.02 µM
GI50 [2]: 0.0522 µM
TGI [2]: 0.632 µM
GI50 [3]: 0.0411 µM
TGI [3]: 0.204 µM
GI50 [4]: 0.144 µM
TGI [4]: 0.276 µM
GI50 [5]: 0.087 µM
TGI [5]: 0.21 µM
GI50 [6]: 0.1 µM
TGI [6]: 0.242 µM
GI50 [7]: 0.169 µM
TGI [7]: 0.625 µM
GI50 [8]: 0.11 µM
TGI [8]: 0.236 µM
GI50 [9]: 0.0645 µM
TGI [9]: 0.202 µM
GI50 [10]: 0.13 µM
TGI [10]: 0.298 µM
GI50 [11]: 0.116 µM
TGI [11]: 0.27 µM
GI50 [12]: 0.132 µM
TGI [12]: 0.32 µM
GI50 [13]: 0.129 µM
TGI [13]: 0.313 µM
GI50 [14]: 0.145 µM
TGI [14]: 0.287 µM
GI50 [15]: 0.066 µM
TGI [15]: 0.596 µM
GI50 [16]: 0.181 µM
TGI [16]: 0.56 µM
GI50 [17]: 0.0396 µM
TGI [17]: 0.143 µM
GI50 [18]: 0.119 µM
TGI [18]: 0.254 µM
GI50 [19]: 0.135 µM
TGI [19]: 0.373 µM
GI50 [20]: 0.0171 µM
TGI [20]: 0.168 µM
GI50 [21]: 0.16 µM
TGI [21]: 0.312 µM
GI50 [22]: 0.121 µM
TGI [22]: 0.351 µM
GI50 [23]: 0.0288 µM
TGI [23]: 0.225 µM
GI50 [24]: 0.162 µM
TGI [24]: 0.308 µM
GI50 [25]: 0.0552 µM
TGI [25]: 0.211 µM
GI50 [26]: 0.068 µM
TGI [26]: 0.225 µM
GI50 [27]: 0.271 µM
TGI [27]: 1.13 µM
GI50 [28]: 0.123 µM
TGI [28]: 0.265 µM
GI50 [29]: 0.139 µM
TGI [29]: 0.269 µM
GI50 [30]: 0.108 µM
TGI [30]: 0.248 µM
GI50 [31]: 0.125 µM
TGI [31]: 0.273 µM
GI50 [32]: 0.142 µM
TGI [32]: 0.312 µM
GI50 [33]: 0.0998 µM
TGI [33]: 0.242 µM
GI50 [34]: 0.174 µM
TGI [34]: 0.346 µM
GI50 [35]: 0.0599 µM
TGI [35]: 0.202 µM
GI50 [36]: 0.109 µM
TGI [36]: 0.234 µM
GI50 [37]: 0.136 µM
TGI [37]: 0.295 µM
GI50 [38]: 0.111 µM
TGI [38]: 0.354 µM
GI50 [39]: 0.117 µM
TGI [39]: 0.248 µM
GI50 [40]: 0.12 µM
TGI [40]: 0.245 µM
GI50 [41]: 0.148 µM
TGI [41]: 0.314 µM
GI50 [42]: 0.192 µM
TGI [42]: 0.808 µM
GI50 [43]: 0.123 µM
TGI [43]: 0.264 µM
GI50 [44]: 0.0569 µM
TGI [44]: 0.188 µM
GI50 [45]: 0.134 µM
TGI [45]: 0.278 µM
GI50 [46]: 0.0564 µM
TGI [46]: 0.364 µM
GI50 [47]: 0.129 µM
TGI [47]: 0.261 µM
GI50 [48]: 0.112 µM
TGI [48]: 0.24 µM
GI50 [49]: 0.0452 µM
TGI [49]: 0.188 µM
GI50 [50]: 0.167 µM
TGI [50]: 1.23 µM
GI50 [51]: 0.113 µM
TGI [51]: 0.236 µM
